Test results as given in US20090203778A1, “FATTY ACID ANALOGUES, I.E. INCLUDING DHA DERIVATIVES FOR USES AS A MEDICAMENT” (priority 2005, published 2009).

Tests used:
[1] = tested on: adipose prone mice of the C57BL/6J strain; test: Animal model of metabolic syndrome, adipose prone mice on high-fat diet, 4 months of dietary interventions; assay type: in vivo; details: for Body weight / Body wt. gain / NEFA / Insulin / TAGs: 4 months; for AUCglucose: intraperitoneal glucose tolerance test; for Insulin: plasma; for TAGs: serum
Experimental: An animal model of the metabolic syndrome using the adipose prone mice of the C57BL/6J strain was used to document effects on typical laboratory and pathological anatomical features common for the metabolic syndrome. When given a high fat diet containing about 60% of fat, the animals are getting obese developing high insulin plasma levels, pathological glucose tolerance test, elevated serum triglycerides and non-esterified fatty acids, and fat liver. All experiments were performed on male C57BL/6 mice, either a substrain C57BL/N (supplier: Charles River, Germany, n=160, experiments A-C, see below), or a substrain C57BL/6J (supplier: the Jackson laboratory, Bar Harbor, Me., USA, n=32, experiment D). Total numbers of animals used were higher (n=170 and 36, respectively), because of culling. In the latter case, animals were bred for several generations (<20) at the Institute of Physiology. At the beginning of the treatment, animals were 14-week-old and their body weight range was 23.6-27.1 g. One week before the study start, animals were sorted according to their body weight and assigned to subgroups (n=8) of similar mean body weight. […] The animals eliminated from the study at this stage were sacrificed by cervical dislocation. Complete health check of mice was performed by the supplier Charles River and at the start of study serological tests were performed by ANLAB (Prague, Czech Republic). In addition, regular health checks were performed in the animal house in 3-mo-intervals using sentinel mice and serological examinations (ANLAB). In all the tests, the animals were free of specific pathogens. […] All these compounds were in the form of ethyl esters, provided by Pronova Biocare a.s. in sealed containers. Chemical composition of the PRB-compounds was unknown to the laboratory performing the experiments (Institute of Physiology, Academy of Sciences Prague, Czech Republic). After arrival, the PRB-compound were stored in a refrigerator in original containers. The containers were opened just before preparation of the experimental diets. Diets were kept in plastic bags flushed by nitrogen and stored at −70° C. in small aliquots sufficient for feeding animals for one week. Fresh ratios were given in 2-day intervals or daily. The study was based on 4 individual experiments. […] In each experiment, a subgroup of plain cHF diet-fed mice was included and served as a control. Mice were caged in groups of 4 and fed standard chow diet until 3 mo of age, when animals (n=8-13) were randomly assigned to the different test diets. […] Animals were sacrificed after 4 months on the experimental diets, at 7 mo of age, and the end-point analysis were performed.

[2] = Analysis of intracellular free (non-esterified) fatty acids in liver of animals fed PRB-1; assay type: in vivo, mice; details: liver tissue, 1.5% of the fat content in diet for 8 weeks
Experimental: Liver tissue from animals fed PRB-1 was analysed with respect to free unesterified fatty acids. The animals were recruited from Experiment 4 (pharmacodynamic effects of DHA derivatives in an animal model of metabolic syndrome). The animals had been given DHA (15% of fat content of the diet) or the DHA-derivative (1.5% of the fat content in their diet) for 8 weeks and were supposed to be in a steady-state situation with stable levels of DHA and the DHA-derivative intracellularly. Liver tissue was chosen due to the fact that the metabolisation rate is very high in liver.
The liver samples were homogenized in cold PBS buffer, and extracted immediately with chloroform:methanol (2:1) containing 0.2 mM butylated hydroxytoluene (BHT) using cis-10-heptadecenoic acid as internal standard. […] Total protein content was measured using Bio-Rad method after homogenization.
Agilent 1100 system was used for reverse phase column (Supelco Ascentis C18 column, 25 cm×4.6 mm, i.d. 5 μm) separation within 22 min. […] The column elute was identified and quantified in the negative electrospray ionisation applying multiple reaction monitoring mode by triple tandem quadrapole mass/mass (ABI Qtrap-4000). […] The quadratic regression standard curve was used for quantification after internal standard calibration.

PPARγ = molecular target: T1, PPARγ (Homo sapiens, UniProt P37231); test: Affinity testing in transfected cells (luciferase release); assay type: cell-based; details: 10 μM, FIG. 3
T1 construct: For full length PPAR transfection studies, each well received 5 μg reporter construct; expressed in transfected cells; host or cells: COS-1 cells (adipocytes transfected with pSG5-PPARγ are also described)
T1 sequence (P37231 1-505): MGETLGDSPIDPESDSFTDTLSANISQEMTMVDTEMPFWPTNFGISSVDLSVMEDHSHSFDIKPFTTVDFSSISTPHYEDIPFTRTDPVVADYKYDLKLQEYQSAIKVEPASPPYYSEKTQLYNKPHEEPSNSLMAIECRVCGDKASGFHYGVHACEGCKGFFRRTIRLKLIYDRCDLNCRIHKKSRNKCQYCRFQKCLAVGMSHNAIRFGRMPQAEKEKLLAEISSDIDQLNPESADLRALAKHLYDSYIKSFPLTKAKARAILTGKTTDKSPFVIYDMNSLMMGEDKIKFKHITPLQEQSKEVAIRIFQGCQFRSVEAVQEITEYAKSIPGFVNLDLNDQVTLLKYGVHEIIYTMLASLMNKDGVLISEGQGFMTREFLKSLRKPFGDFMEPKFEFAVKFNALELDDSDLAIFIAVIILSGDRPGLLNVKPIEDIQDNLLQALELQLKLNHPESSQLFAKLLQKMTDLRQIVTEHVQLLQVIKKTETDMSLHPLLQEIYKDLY
Experimental: Release of luciferase is correlated to transcription of genes. Binding of a ligand to a nuclear receptor such as PPARγ induces transcription of the respective gene thereby releasing luciferase. This technique therefore provides a measure of ligand affinity to the receptor as well as activation of the responsible gene.
Transient transfection of COS-1 cells was performed in 6-well plates as described by Graham and van der Eb (Graham). For full length PPAR transfection studies, each well received 5 μg reporter construct, 2.5 μg pSV-β-galactosidase as an internal control, 0.4 μg pSG5-PPARγ2. The cells were harvested after 72 h, and the luciferase activity was measured according to the protocol (Promega). The luciferase activity was normalised against β-galactosidase activity. The adipocytes were transfected at D11 of differentiation using 16 μL LipofectaminPlus reagent, 4 μl Lipofectamine (Life Technologies Inc.), 0.2 μg pSG5-PPARγ, and 100 ng pTK Renilla luciferase as control of transfection afficiency. […] The luciferase activities were measured as recommended by the manufacturer (Dual Luciferase assay, Promega). […]
Fatty acids (BRL or DHA) and PRB-1 (stock solutions) were solubilized to 0.1 M final concentration in DMSO. […] Luciferase activity was measured using a luminometer (TD-20/20 luminometer; Turner Designs, Sunnycvale, Calif.) and normalized against protein content.

[3] = tested on: liver steatosis in mice fed high fat diet; test: Testing of DHA derivatives on liver fat (histology); assay type: in vivo; details: eosin-hematoxylin stained liver
Excerpt: Tissue samples from animals in the experiments with DHA derivatives was histologically analysed. After paraffination, tissue samples from liver, adipose tissue, skeletal muscle, pancreas, and kidney were stained with eosin-hematoxylin.

[4] = 0.15% of fat content of cHF diet
[5] = 0.5% of fat content of cHF diet
[6] = 1.5% of fat content of cHF diet

| Compound | Fasted glucose [1, 4] [mg/dL] | Body weight [1, 4] [grams] | NEFA [1, 4] [mmol/L] | AUCglucose [1, 4] [mM × 180 min] | TAGs [1, 4] [mmol/L] | Fasted glucose [1, 5] [mg/dL] | Body weight [1, 5] [grams] | Body wt. gain [1, 5] [grams] | NEFA [1, 5] [mmol/L] | AUCglucose [1, 5] [mM × 180 min] | Insulin [1, 5] [ng/mL] | TAGs [1, 5] [mmol/L] | Fasted glucose [1, 6] [mg/dL] | Body weight [1, 6] [grams] | Body wt. gain [1, 6] [grams] | NEFA [1, 6] [mmol/L] | TAGs [1, 6] [mmol/L] | further results |
| --- | --- | --- | --- | --- | --- | --- | --- | --- | --- | --- | --- | --- | --- | --- | --- | --- | --- | --- |
| CC/C=C\C/C=C\C/C=C\C/C=C\C/C=C\C/C=C\CCC(=O)O [DHA, (all-Z)-4,7,10,13,16,19-docosahexaenoic acid] | 141 ± 10 | 48.3 ± 0.6 | 0.96 ± 0.07 | 1477 ± 214 | 1.50 ± 0.13 | 136 ± 8 | 46.9 ± 0.7 | 22.9 ± 0.7 | 0.89 ± 0.03 | 1816 ± 182 | 5.82 ± 0.47 | 1.78 ± 0.08 | 138 ± 7 | 47.1 ± 0.7 | 23.0 ± 0.8 | 0.98 ± 0.07 | 1.91 ± 0.26 | Body wt. gain [1, 4]: 24.3 ± 0.8 grams; Insulin [1, 4]: 4.31 ± 0.39 ng/mL; AUCglucose [1, 6]: 2132 ± 288 mM × 180 min; Insulin [1, 6]: 6.55 ± 0.31 ng/mL |
| CC/C=C\C/C=C\C/C=C\C/C=C\C/C=C\C/C=C\CC(C)C(=O)OCC (stereo not drawn) [PRB-1, α-methyl DHA EE] | 126 ± 15 | 47.2 ± 1.3 | 0.62 ± 0.04 | 1291 ± 172 | 1.75 ± 0.08 | 131 ± 7 | 47.4 ± 0.6 | 23.8 ± 0.5 | 0.73 ± 0.04 | 1596 ± 205 | 3.93 ± 0.59 | 2.03 ± 0.22 | 130 ± 14 | 44.0 ± 1.5 | 20.2 ± 1.3 | 0.63 ± 0.03 | 1.58 ± 0.08 | concentration of the DHA-derivative (free unesterified fatty acid) in the liver cells [2]: about 10 μg per g of total amount of protein; release of luciferase from transfected cells (PPARγ): high release of luciferase; degree of fat liver (liver steatosis), histology [3]: low degree of fat liver |
